Measurements published in US6387905B2, “Compounds useful for inhibition of farnesyl protein transferase” (Schering Corporation, priority 1996, dated 2002).
Where two headings read alike, the source gives them in different places.

Key:
[1] = target: farnesyl protein transferase (FPT), H-ras (Homo sapiens, UniProt P49354+P49356); test: FPT IC50 (H-ras), inhibition of farnesyl protein transferase, in vitro enzyme assay; type: biochemical
Method: (§1) FPT IC50 (inhibition of farnesyl protein transferase, in vitro enzyme assay) and COS Cell IC50 (Cell-Based Assay) were determined following the assay procedures described in WO 95/10516, published Apr. 20, 1995. GGPT IC50 (inhibition of geranylgeranyl protein transferase, in vitro enzyme assay), Cell Mat Assay, and anti-tumor activity (in vivo anti-tumor studies) could be determined by the assay procedures described in WO 95/10516. The disclosure of WO 95/10516 is incorporated herein by reference thereto.

[2] = test system: COS Cell; test: COS Cell IC50 (Cell-Based Assay); conditions: COS
Method: as §1

[3] = test system: Human tumor cells; test: Soft Agar Assay (anchorage-independent growth); type: cell-based; conditions: Table 5, read-out: Soft Agar IC50
Method: Anchorage-independent growth is a characteristic of tumorgenic cell lines. Human tumor cells are suspended in growth medium containing 0.3% agarose and an indicated concentration of a farnesyl transferase inhibitor. The solution is overlayed onto growth medium solidified with 0.6% agarose containing the same concentration of farnesyl transferase inhibitor as the top layer. After the top layer is solidified, plates are incubated for 10-16 days at 37° C. under 5% CO2 to allow colony outgrowth. After incubation, the colonies are stained by overlaying the agar with a solution of MTT (3-[4,5-dimethyl-thiazol-2-yl]-2,5-diphenyltetrazolium bromide, Thiazolyl blue) (1 mg/mL in PBS). Colonies can be counted and the IC50's can be determined.

[4] = target: farnesyl protein transferase (FPT), K-ras (Homo sapiens, UniProt P49354+P49356); test: FPT IC50 (K-ras), inhibition of farnesyl protein transferase, in vitro enzyme assay; type: biochemical
Method: as §1

[5] = Table 3, read-out: COS Cell IC50
[6] = Table 5, read-out: Cos Cell IC50
[7] = H-ras, read-out: FPT IC50 (H-ras)
[8] = Table 3, H-ras, read-out: FPT IC50 (nM) (H-ras)

Structure (SMILES) | melting point [°C] | IC50 ([1]; Table 4, read-out: FPT IC50) [nM] | IC50 [2, 5] [nM] | IC50 [2, 6] [nM] | IC50 ([3]; Homo sapiens) [nM] | IC50 [4] [nM] | IC50 [1, 7] [nM] | IC50 [1, 8] [nM] | IC50 ([3]; listed as 12.1) [nM]
CCOC(=O)CC(=O)N1CCC(CC(=O)N2CCC([C@H]3c4ncc(Br)cc4CCc4cc(Cl)cc(Br)c43)CC2)CC1 [Example 30] | 77.2 to 78.1 | 2.8 |  |  |  |  |  |  | 
C[C@@H](N)C(=O)N1CCC(CC(=O)N2CCC([C@H]3c4ncc(Br)cc4CCc4cc(Cl)cc(Br)c43)CC2)CC1 [Example 6] |  |  | 39 | 39 | 200 | 31 | 8.1 |  | 
C[C@H](N)C(=O)N1CCC(CC(=O)N2CCC([C@H]3c4ncc(Br)cc4CCc4cc(Cl)cc(Br)c43)CC2)CC1 [Example 4] |  |  | 140 | 140 |  | 23.8 | 5.2 |  | 
O=C(CC1CCN(C(=O)[C@@H]2CCCN2)CC1)N1CCC([C@H]2c3ncc(Br)cc3CCc3cc(Cl)cc(Br)c32)CC1 [Example 12] |  |  | 55 |  | 250 | 35 |  | 4.4 | 
N[C@@H](Cc1ccccc1)C(=O)N1CCC(CC(=O)N2CCC([C@H]3c4ncc(Br)cc4CCc4cc(Cl)cc(Br)c43)CC2)CC1 [Example 10] |  |  | 300 |  |  | 71.2 |  | 8.3 | 
CC(C)(C)OC(=O)N1CCC[C@H]1C(=O)N1CCC(CC(=O)N2CCC([C@H]3c4ncc(Br)cc4CCc4cc(Cl)cc(Br)c43)CC2)CC1 [Example 9] |  |  | 700 |  |  | 34.8 |  | 11.6 | 
CCOC(=O)CC(=O)N1CCC(CC(=O)N2CCC(C3c4ncc(Br)cc4CCc4cc(Cl)cc(Br)c43)CC2)CC1 (single isomer, unassigned; (+)) [Example 26] | 77 to 78 |  | 125 |  |  |  |  | < 2 | 
CC(C)(C)OC(=O)N[C@@H](Cc1c[nH]cn1)C(=O)N1CCC(CC(=O)N2CCC([C@H]3c4ncc(Br)cc4CCc4cc(Cl)cc(Br)c43)CC2)CC1 [Example 8] |  |  | 125 | 125 |  | 41 |  | 7.4 | 
N[C@@H](Cc1c[nH]cn1)C(=O)N1CCC(CC(=O)N2CCC([C@H]3c4ncc(Br)cc4CCc4cc(Cl)cc(Br)c43)CC2)CC1 [Example 11] |  |  |  |  |  | 49 |  | 15 | 
C[C@@H](NC(=O)OC(C)(C)C)C(=O)N1CCC(CC(=O)N2CCC([C@H]3c4ncc(Br)cc4CCc4cc(Cl)cc(Br)c43)CC2)CC1 [Example 5] |  |  |  |  |  | 22 |  | 8.4 | 
CN(C)CCC(=O)N1CCC(CC(=O)N2CCC(C3c4ncc(Br)cc4CCc4cc(Cl)cc(Br)c43)CC2)CC1 (single isomer, unassigned; (+)) [Example 20] | 82 to 84 |  | 10 |  | 190 | 19.8 |  | 5.8 | 
O=C(CCN1CCCCC1)N1CCC(CC(=O)N2CCC(C3c4ncc(Br)cc4CCc4cc(Cl)cc(Br)c43)CC2)CC1 (single isomer, unassigned; (+)) [Example 22] | 127 to 128 |  | 43 |  |  |  |  | < 2.6 | 
CC(C)(C)OC(=O)NCC(=O)N1CCC(CC(=O)N2CCC([C@H]3c4ncc(Br)cc4CCc4cc(Cl)cc(Br)c43)CC2)CC1 [Example 1] |  |  |  |  |  | 43.2 |  | 12.3 | 
CN(C)CC(=O)N1CCC(CC(=O)N2CCC(C3c4ncc(Br)cc4CCc4cc(Cl)cc(Br)c43)CC2)CC1 (single isomer, unassigned; (+)) [Example 21] |  |  | 10 |  | 160 | 19.4 |  | 2.5 | 90
COC(=O)CCC(=O)N1CCC(CC(=O)N2CCC(C3c4ncc(Br)cc4CCc4cc(Cl)cc(Br)c43)CC2)CC1 (single isomer, unassigned; (+)) [Example 25] | 114 to 115 |  | 39 |  | 250 |  |  | 5.1 | 
C[C@H](NC(=O)OC(C)(C)C)C(=O)N1CCC(CC(=O)N2CCC([C@H]3c4ncc(Br)cc4CCc4cc(Cl)cc(Br)c43)CC2)CC1 [Example 3] |  |  |  |  |  | 30 |  | 6.3 | 
CN(C)CCCC(=O)N1CCC(CC(=O)N2CCC(C3c4ncc(Br)cc4CCc4cc(Cl)cc(Br)c43)CC2)CC1 (single isomer, unassigned; (+)) [Example 19] | 69 to 71 |  |  |  |  |  |  | 35 | 
COC(=O)CCCC(=O)N1CCC(CC(=O)N2CCC(C3c4ncc(Br)cc4CCc4cc(Cl)cc(Br)c43)CC2)CC1 (single isomer, unassigned; (+)) [Example 24] | 101 to 102 |  | 10 |  |  |  |  | 4.8 | 
